Assay results from patent US6066642A, “Dihydropyridine-, pyridine-, benzopyran-4-one- and triazoloquinazoline derivative, their preparation and their use as adenosine receptor antagonists” (priority 1998, dated 2000).
Where two headings read alike, the source gives them in different places. Values belong to the molecule of their own block, whether it stands above or below them.

Key:
A1 receptors = target: T1, A1 receptors (Rattus norvegicus, UniProt P25099); experiment: biochemical; format: binding; conditions: for inhibition at 100 µM: 10^-4 M, read-out: displacement of specific binding rA1
T1 sequence (P25099 1-326): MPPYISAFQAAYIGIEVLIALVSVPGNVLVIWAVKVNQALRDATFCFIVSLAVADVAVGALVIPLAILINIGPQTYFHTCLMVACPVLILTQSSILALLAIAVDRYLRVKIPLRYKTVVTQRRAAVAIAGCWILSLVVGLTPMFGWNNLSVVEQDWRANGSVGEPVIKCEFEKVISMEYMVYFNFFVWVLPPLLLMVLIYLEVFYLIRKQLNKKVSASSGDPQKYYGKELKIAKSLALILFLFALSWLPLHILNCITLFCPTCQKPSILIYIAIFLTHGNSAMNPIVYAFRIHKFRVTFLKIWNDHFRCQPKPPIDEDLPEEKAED
Protocol: ^a Displacement of specific [^3 H] PIA binding in rat brain
percentage of specific binding displaced at 100 μM.

human A3 receptors = target: T2, human A3 receptors (Homo sapiens, UniProt P0DMS8); experiment: radioligand binding, displacement of specific [125I]AB-MECA binding at human A3 receptors expressed in HEK-293 cells; conditions: for Ki: [125I]AB-MECA, HEK-293 membranes; for inhibition at 100 µM: 10^-4 M; for inhibition at 10 µM: 10^-5 M
T2 construct: expressed in transfected cells; host or cells: HEK-293 cells (membranes)
T2 sequence (P0DMS8 1-318): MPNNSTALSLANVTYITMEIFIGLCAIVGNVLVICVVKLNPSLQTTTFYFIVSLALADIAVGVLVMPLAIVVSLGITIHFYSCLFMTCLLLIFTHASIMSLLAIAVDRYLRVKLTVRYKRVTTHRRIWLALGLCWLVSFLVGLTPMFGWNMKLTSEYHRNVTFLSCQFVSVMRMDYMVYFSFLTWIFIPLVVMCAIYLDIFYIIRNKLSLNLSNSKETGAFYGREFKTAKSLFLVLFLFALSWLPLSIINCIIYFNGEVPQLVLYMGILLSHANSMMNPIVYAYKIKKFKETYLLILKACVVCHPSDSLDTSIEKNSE
Protocol: A3 receptors expressed in HEK293 cells, in membranes, expressed as
binding displaced at 100 μM.

A2a receptors = target: T3, A2a receptors (Rattus norvegicus, UniProt P30543); experiment: radioligand binding, displacement of specific [3H]CGS 21680 binding in rat striatal membranes; conditions: for inhibition at 100 µM: 10^-4 M
T3 construct: Displacement of specific [^3 H]; from tissue; host or cells: rat striatal membranes
T3 sequence (P30543 whole entry): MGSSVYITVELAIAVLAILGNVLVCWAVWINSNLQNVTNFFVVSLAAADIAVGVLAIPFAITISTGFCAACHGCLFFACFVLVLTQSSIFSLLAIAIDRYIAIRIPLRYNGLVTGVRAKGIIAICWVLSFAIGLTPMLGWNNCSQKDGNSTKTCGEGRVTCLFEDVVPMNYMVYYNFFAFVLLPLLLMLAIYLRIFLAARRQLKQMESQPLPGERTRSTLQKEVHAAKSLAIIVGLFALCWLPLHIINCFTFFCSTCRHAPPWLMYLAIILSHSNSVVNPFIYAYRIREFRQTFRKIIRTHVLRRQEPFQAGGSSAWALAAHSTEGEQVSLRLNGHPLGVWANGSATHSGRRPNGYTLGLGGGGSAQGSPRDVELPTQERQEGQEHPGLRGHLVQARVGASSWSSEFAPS
Protocol: ^b Displacement of specific [^3 H]
or as a percentage of specific binding displaced at 100 μM.

[1] = Table 5, [3H]CGS 21680, rat striatal membranes, read-out: Ki rA2a
[2] = Table 5, read-out: displacement of specific binding rA2a
[3] = Table 6, [3H]PIA, rat brain membranes, read-out: K2 (rA1)
[4] = Table 6, read-out: % inhibition hA3
[5] = striatal membranes, read-out: K2 (rA2a)
[6] = Table 6, [3H]CGS 21680, rat striatal membranes, read-out: K2 (rA2a)

SMILES: COc1ccc2oc(C#Cc3ccccc3)c(O)c(=O)c2c1 [Compound 10, 2-phenylacetylenyl-3-hydroxy-6-methoxyflavone]
inhibition at 100 µM (A1 receptors; Table 3): < 10% | rA1/hA3 (human A3 receptors): > 8 | inhibition at 100 µM (A2a receptors; Table 3, read-out: displacement of specific binding rA2a): < 10%

SMILES: COc1c2ccoc2cc2oc(C=O)cc(=O)c12 [Compound 18, 4-Methoxy-7-formyl-5H-furo [3,2-g][1]-benzopyrano-5-one]
inhibition at 100 µM (A1 receptors; Table 5): < 10% | Ki (human A3 receptors; Table 5, read-out: Ki hA3): 88.9 ± 27.1 µM | rA1/hA3 (human A3 receptors; Table 5, ratio of Ki): > 2 | inhibition at 100 µM (A2a receptors; Table 5, read-out: % of specific binding displaced rA2a): 25 ± 8%

SMILES: COc1c2ccoc2cc2oc(/C=C/c3ccccc3)cc(=O)c12 [Compound 19, 4-methyloxy-7-trans-styryl-visnagin]
Ki (A1 receptors; Table 5, [3H]PIA, rat brain membranes, read-out: Ki rA1): 32.6 ± 10.5 µM | Ki (human A3 receptors; Table 5, read-out: Ki hA3): 8.28 ± 2.69 µM | rA1/hA3 (human A3 receptors; Table 5, ratio of Ki): 0.37 | Ki (A2a receptors; [1]): 11.5 ± 1.3 µM

inhibition at 100 µM (A1 receptors; Table 5): < 10% | inhibition at 100 µM (human A3 receptors; Table 5, read-out: displacement of specific binding hA3): < 10% | inhibition at 100 µM (A2a receptors; [2]): < 10%
SMILES: COc1c2ccoc2cc2oc(/C=C/C=Cc3ccccc3)cc(=O)c12 [Compound 22, 4-methoxy-7-phenylbutadienyl visnagin]

SMILES: CCOc1c2ccoc2cc2oc(/C=C/C=Cc3ccccc3)cc(=O)c12 [Compound 23, 4-ethoxy-7-phenylbutadienyl visnagin]
inhibition at 100 µM (A1 receptors; Table 5): < 10% | rA1/hA3 (human A3 receptors; Table 5, ratio of Ki): > 4 | Ki (A2a receptors; [1]): 167 µM

SMILES: COc1c2ccoc2cc2oc(C=Nc3ccccc3)cc(=O)c12 [Compound 24, 4-methoxy-7-(CH=N-phenyl)visnagin]
inhibition at 100 µM (A1 receptors; Table 5): < 10% | rA1/hA3 (human A3 receptors; Table 5, ratio of Ki): > 20 | inhibition at 100 µM (A2a receptors; [2]): < 10%

SMILES: O=c1cc(-c2ccccc2)oc2cc(O)ccc12 [Compound 26, reference compound]
Ki (A1 receptors; [3]): 3.03 ± 0.49 µM | inhibition at 100 µM (human A3 receptors; [4]): 41 ± 7% | Ki (A2a receptors; [5]): 2.68 ± 0.68 µM

SMILES: COc1ccc(-c2cc(=O)c3ccc(O)cc3o2)cc1OC [Compound 27, reference compound]
Ki (A1 receptors; [3]): 18.8 ± 3.6 µM | inhibition at 100 µM (human A3 receptors; [4]): 32 ± 4% | Ki (A2a receptors; [6]): 35.4 ± 7.3 µM

SMILES: O=c1cc(-c2ccc(O)cc2)oc2cc(O)cc(O)c12 [Compound 28, apigenin, reference compound]
Ki (A1 receptors; [3]): 3 ± 0.29 µM | inhibition at 10 µM (human A3 receptors; [4]): 63 ± 1% | Ki (A2a receptors; [6]): 7.58 ± 1.23 µM

SMILES: COc1ccc(-c2cc(=O)c3c(O)cc(C)cc3o2)cc1 [Compound 29, reference compound]
Ki (A1 receptors; brain membranes, read-out: K2 (rA1)): 3.4 ± 0.35 µM | Ki (human A3 receptors; Table 6, read-out: K2 (hA3)): 6.7 ± 1.78 µM | Ki (A2a receptors; [6]): 28 ± 7.35 µM

inhibition at 100 µM (A1 receptors; Table 6): < 10% | inhibition at 10 µM (human A3 receptors; [4]): 69 ± 7% | inhibition at 100 µM (A2a receptors; Table 6, read-out: displacement of specific binding rA2a): < 10%
SMILES: COc1ccc(-c2cc(=O)c3c(O)cc(OC)cc3o2)cc1 [Compound 30, reference compound]

SMILES: COc1c(O)cc2oc(-c3ccc(O)cc3)cc(=O)c2c1O [Compound 32, hispidulin, reference compound]
Ki (A1 receptors; [3]): 1.61 ± 0.29 µM | inhibition at 10 µM (human A3 receptors; [4]): 63 ± 2% | Ki (A2a receptors; [5]): 6.48 ± 0.65 µM

Ki (A1 receptors; [3]): 1.2 µM | Ki (human A3 receptors; Table 6, read-out: K2 (hA3)): 1.72 µM | Ki (A2a receptors; [6]): 3 ± 0.7 µM
SMILES: COc1cc2oc(-c3ccc(O)cc3)cc(=O)c2c(O)c1OC [Compound 33, cirsimaritin, reference compound]

SMILES: CC(=O)Oc1cc(OC(C)=O)c2c(=O)c(OC(C)=O)c(-c3ccccc3)oc2c1 [Compound 34, 3,5,7-triacetoxyflavone]
Ki (A1 receptors; [3]): 11.6 ± 4.4 µM | Ki (human A3 receptors; Table 6, read-out: K2 (hA3)): 17.5 ± 2 µM | Ki (A2a receptors; [6]): 56.5 ± 9.5 µM

Ki (A1 receptors; [3]): 27.6 ± 7.5 µM | Ki (human A3 receptors; Table 6, read-out: K2 (hA3)): 2.65 µM | Ki (A2a receptors; [6]): 46.7 ± 2.7 µM
SMILES: COc1ccc(-c2oc3cc(OC)cc(OC)c3c(=O)c2OC)c(OC)c1 [Compound 38, 2',3,4',5,7-pentamethyloxyflavone]
